Results taken from patent US20240254140A1, “COMPOUNDS AND THEIR USE IN THE TREATMENT OF BACTERIAL INFECTION” (Hoffmann-La Roche Inc., priority 2021, published 2024).
Converted amounts (≈) assume the structure as drawn.

Test system: Escherichia coli ATCC 25922
Assay: Minimal Inhibitory Concentration (MIC) determination, broth microdilution
Format: cell-based
Settings: strain Escherichia coli ATCC 25922, broth microdilution per CLSI M07-A10, 18-24 hours at 35±2° C., lowest concentration for complete growth inhibition; for MIC: ATCC25922
Procedure: Minimal Inhibitory Concentration (MIC) Determination:
The MIC of antibacterial compounds against multiple species and strains was determined using the broth microdilution method according to M07-A10 Clinical and Laboratory Standards Institute (CLSI) guidelines, using the appropriate broth medium. In short, the compound plates were prepared by dispensing 100 μL of each stock solution in the first well of a 96 well microtiter plate (MTP) at a concentration 100-fold higher than the final concentration desired in broth. Eleven serial 2-fold dilutions of the highest concentration were made in DMSO for new compounds and in water (or appropriate solution) for reference compounds [2]. 1 μL of each well was transferred in a new MTP, which served as the test plate by subsequent inoculation. This bacterial suspension was prepared from strains that were first sub-cultured on agar plates and incubated for 18-24 hours as appropriate. Following incubation, the inoculum was prepared from isolated colonies and adjusted to 0.5 McFarland turbidity standard (1 to 2×10^8 Colony Forming Units (CFU)/mL) in 0.9% saline. The bacterial suspension was then diluted 1:200 in appropriate sterile medium and within 15 minutes 100 μL/well were dispensed. Negative controls (lack of bacterial cells) and growth control wells (lack of compound) were included in all plates. MTPs were incubated for 18-24 hours at 35±2° C. in ambient air. The MIC value of each compound, expressed as μg/mL, was determined as the lowest concentration required for complete growth inhibition (no visible growth). • [1] CLSI (2015) Methods for dilution antimicrobial susceptibility tests for bacteria that grow aerobically; Approved Standard, Tenth Edition. CLSI Document M7-A10 (ISBN 1-56238-987-4). Wayne, PA: Clinical and Laboratory Standards Institute, 19087, USA. • [2] CLSI (2017) Performance Standards for Antimicrobial Susceptibility Testing; Twenty-Fifth Informational Supplement. CLSI Document M100-S27, CLSI, Wayne, Pennsylvania 19087, USA.
Table 1 provides the Minimal Inhibitory Concentrations (MIC) in micrograms per millilitre of the compounds of present invention obtained against the strain Escherichia coli ATCC 25922.

| SMILES | MIC [µg/mL] | Escherichia coli growth inhibition MIC [µg/mL] |
| --- | --- | --- |
| CC(C)(O)C(=O)Nc1cc(C#N)c2c(c1)CC(CNCCC1CN(c3ccc4c(n3)NC(=O)CO4)C(=O)O1)C2 (stereo not drawn) [Example 21, N-[7-cyano-2-[[2-[2-oxo-3-(3-oxo-4H-pyrido[3,2-b][1,4]oxazin-6-yl)oxazolidin-5-yl]ethylamino]methyl]indan-5-yl]-2-hydroxy-2-methyl-propanamide] | 0.5 (≈ 0.935 µM) |  |
| Cc1cc(NC(=O)CN(C)C)nc2c1CC(CNCCC1CN(c3cnc4c(n3)NC(=O)CO4)C(=O)O1)C2 (stereo not drawn) [Example 24] | 0.5 (≈ 0.953 µM) |  |
| O=C1COc2ncc(N3CC4(CCN(CC5Cc6cc(NC(=O)[C@@H]7C[C@@H](O)CN7)cc(F)c6C5)CC4)OC3=O)nc2N1 (stereo partly drawn) [Example 42, (2S,4R)—N-[7-fluoro-2-[[2-oxo-3-(3-oxo-4H-pyrazino[2,3-b][1,4]oxazin-6-yl)-1-oxa-3,8-diazaspiro[4.5]decan-8-yl]methyl]indan-5-yl]-4-hydroxy-pyrrolidine-2-carboxamide] | 0.125 (≈ 0.215 µM) |  |
| CO[C@H]1CN[C@H](C(=O)Nc2cc(F)c3c(c2)CC(CNCCC2CN(c4cnc5c(n4)NC(=O)CO5)C(=O)O2)C3)C1 (stereo partly drawn) [Example 44, (2S,4R)-N-[7-fluoro-2-[[2-[2-oxo-3-(3-oxo-4H-pyrazino[2,3-b][1,4]oxazin-6-yl)oxazolidin-5-yl]ethylamino]methyl]indan-5-yl]-4-methoxy-pyrrolidine-2-carboxamide] | 1 (≈ 1.76 µM) |  |
| C[C@H](C(=O)Nc1cc(F)c2c(c1)CC(CNCC[C@@H]1CN(c3cnc4c(n3)NC(=O)CO4)C(=O)O1)C2)N(C)C (stereo partly drawn) [Example 70, (2R)-2-(Dimethylamino)-N-[7-fluoro-2-[[2-[(5R)-2-oxo-3-(3-oxo-4H-pyrazino[2,3-b][1,4]oxazin-6-yl)oxazolidin-5-yl]ethylamino]methyl]indan-5-yl]propanamide] | 0.125 (≈ 0.231 µM) |  |
| CN(CC(=O)Nc1cc(F)c2c(c1)CC(CNCCC1CN(c3cnc4c(n3)NC(=O)CO4)C(=O)O1)C2)C1CC1 (stereo not drawn) [Example 13] | 1 (≈ 1.81 µM) |  |
| CN(CC(=O)Nc1cc(F)c2c(c1)CC(CNCCC1CN(c3cnc4c(n3)NC(=O)CO4)C(=O)O1)C2)C1COC1 (stereo not drawn) [Example 11] | 0.5 (≈ 0.878 µM) |  |
| CN1C[C@H](O)C[C@H]1C(=O)Nc1cc(F)c2c(c1)CC(CNCCC1CN(c3cnc4c(n3)NC(=O)CO4)C(=O)O1)C2 (stereo partly drawn) [Example 49, (2S,4R)—N-[7-Fluoro-2-[[2-[2-oxo-3-(3-oxo-4H-pyrazino[2,3-b][1,4]oxazin-6-yl)oxazolidin-5-yl]ethylamino]methyl]indan-5-yl]-4-hydroxy-1-methyl-pyrrolidine-2-carboxamide] | 0.25 (≈ 0.439 µM) |  |
| CC(C)(N)C(=O)Nc1cc(F)c2c(c1)CC(CNCCC1CN(c3cnc4c(n3)NC(=O)CO4)C(=O)O1)C2 (stereo not drawn) [Example 43, 2-amino-N-[7-fluoro-2-[[2-[2-oxo-3-(3-oxo-4H-pyrazino[2,3-b][1,4]oxazin-6-yl)oxazolidin-5-yl]ethylamino]methyl]indan-5-yl]-2-methyl-propanamide] | 0.25 (≈ 0.474 µM) |  |
| O=C1COc2ncc(N3CC4(CCN(CC5Cc6cc(NC(=O)[C@@H]7C[C@@H](O)CN7)cnc6C5)CC4)OC3=O)nc2N1 (stereo partly drawn) [Example 60, (2S,4R)-4-Hydroxy-N-[6-[[2-oxo-3-(3-oxo-4H-pyrazino[2,3-b][1,4]oxazin-6-yl)-1-oxa-3,8-diazaspiro[4.5]decan-8-yl]methyl]-6,7-dihydro-5H-cyclopenta[b]pyridin-3-yl]pyrrolidine-2-carboxamide] | 0.5 (≈ 0.886 µM) |  |
| N#Cc1cc(NC(=O)[C@@H]2C[C@@H](O)CN2)cc2c1CC(CNCCC1CN(c3cnc4c(n3)NC(=O)CO4)C(=O)O1)C2 (stereo partly drawn) [Example 61, (2S,4R)—N-[7-Cyano-2-[[2-[2-oxo-3-(3-oxo-4H-pyrazino[2,3-b][1,4]oxazin-6-yl)oxazolidin-5-yl]ethylamino]methyl]indan-5-yl]-4-hydroxy-pyrrolidine-2-carboxamide] | 0.5 (≈ 0.889 µM) |  |
| C[C@H](C(=O)Nc1cc(F)c2c(c1)CC(CNCC[C@H]1CN(c3cnc4c(n3)NC(=O)CO4)C(=O)O1)C2)N(C)C (single isomer, unassigned) [Example 68] | 0.125 (≈ 0.231 µM) |  |
| O=C1COc2ncc(N3CC(CCNCC4Cc5cc(NC(=O)[C@@H]6C[C@@H](O)CN6)cc(F)c5C4)OC3=O)nc2N1 (stereo partly drawn) [Example 37, (2S,4R)-N-[7-fluoro-2-[[2-[2-oxo-3-(3-oxo-4H-pyrazino[2,3-b][1,4]oxazin-6-yl)oxazolidin-5-yl]ethylamino]methyl]indan-5-yl]-4-hydroxy-pyrrolidine-2-carboxamide] | 0.5 (≈ 0.9 µM) |  |
| C[C@H](C(=O)Nc1cc(C#N)c2c(c1)CC(O)(CNCCC1CN(c3cnc4c(n3)NC(=O)CO4)C(=O)O1)C2)N(C)C (stereo partly drawn) [Example 34, (2R)-N-[7-cyano-2-hydroxy-2-[[2-[2-oxo-3-(3-oxo-4H-pyrazino[2,3-b][1,4]oxazin-6-yl)oxazolidin-5-yl]ethylamino]methyl]indan-5-yl]-2-(dimethylamino)propanamide] | 4 (≈ 7.08 µM) |  |
| O=C1COc2ncc(N3CC(CCNCC4Cc5cc(NC(=O)[C@H]6C[C@H](O)CN6)cc(F)c5C4)OC3=O)nc2N1 (stereo partly drawn) [Example 47, (2R,4S)-N-[7-fluoro-2-[[2-[2-oxo-3-(3-oxo-4H-pyrazino[2,3-b][1,4]oxazin-6-yl)oxazolidin-5-yl]ethylamino]methyl]indan-5-yl]-4-hydroxy-pyrrolidine-2-carboxamide] | 0.25 (≈ 0.45 µM) |  |
| Cc1ncc(C(=O)Nc2cc(F)c3c(c2)CC(CNCCC2CN(c4cnc5c(n4)NC(=O)CO5)C(=O)O2)C3)o1 (stereo not drawn) [Example 15, N-[7-fluoro-2-[[2-[2-oxo-3-(3-oxo-4H-pyrazino[2,3-b][1,4]oxazin-6-yl)oxazolidin-5-yl]ethylamino]methyl]indan-5-yl]-2-methyl-oxazole-5-carboxamide] | 0.25 (≈ 0.453 µM) |  |
| N[C@@H](CC(=O)O)C(=O)Nc1cc(F)c2c(c1)CC(CNCCC1CN(c3cnc4c(n3)NC(=O)CO4)C(=O)O1)C2.O=C(O)C(F)(F)F (stereo partly drawn) [Example 48, (3S)-3-amino-4-[[7-fluoro-2-[[2-[2-oxo-3-(3-oxo-4H-pyrazino[2,3-b][1,4]oxazin-6-yl)oxazolidin-5-yl]ethylamino]methyl]indan-5-yl]amino]-4-oxo-butanoic acid; 2,2,2-trifluoroacetic acid] | 4 |  |
| C[C@H](C(=O)Nc1cc(F)c2c(c1)CC(CNCC[C@H]1CN(c3cnc4c(n3)NC(=O)CO4)C(=O)O1)C2)N(C)C (single isomer, unassigned) [Example 69] |  | 0.125 |
| C[C@H](C(=O)Nc1cc(F)c2c(c1)CC(CN1CCC3(CC1)CN(c1cnc4c(n1)NC(=O)CO4)C(=O)O3)C2)N(C)C (stereo partly drawn) [Example 7, (2R)-2-(dimethylamino)-N-[7-fluoro-2-[[2-oxo-3-(3-oxo-4H-pyrazino[2,3-b][1,4]oxazin-6-yl)-1-oxa-3,8-diazaspiro[4.5]decan-8-yl]methyl]indan-5-yl]propanamide] | 0.25 (≈ 0.44 µM) |  |
| Cc1nc(NC(=O)[C@@H](C)N(C)C)cc2c1CC(CN1CCC3(CC1)CN(c1cnc4c(n1)NC(=O)CO4)C(=O)O3)C2 (stereo partly drawn) [Example 29, (2R)-2-(dimethylamino)-N-[1-methyl-6-[[2-oxo-3-(3-oxo-4H-pyrazino[2,3-b][1,4]oxazin-6-yl)-1-oxa-3,8-diazaspiro[4.5]decan-8-yl]methyl]-6,7-dihydro-5H-cyclopenta[c]pyridin-3-yl]propanamide] | 0.5 (≈ 0.886 µM) |  |
| C[C@@H](C(=O)Nc1cc(F)c2c(c1)CC(CN1CCC3(CC1)CN(c1cnc4c(n1)NC(=O)CO4)C(=O)O3)C2)N(C)C (stereo partly drawn) [Example 51, (2S)-2-(Dimethylamino)-N-[7-fluoro-2-[[2-oxo-3-(3-oxo-4H-pyrazino[2,3-b][1,4]oxazin-6-yl)-1-oxa-3,8-diazaspiro[4.5]decan-8-yl]methyl]indan-5-yl]propanamide] | 0.125 (≈ 0.22 µM) |  |
